Source: patent publication US20240294488A1, “ISOTOPOLOGES, SALTS, CRYSTALLINE FORMS, STEREOISOMERS, OF METHYLONE AND ETHYLONE AND METHODS OF USE THEREOF” (Terran Biosciences Inc., priority 2021, published 2024)
Counter-ions that a name gives are not always drawn.

Experiments:
[1] = system: Sprague-Dawley rats; test: Rat elevated zero maze model of anxiety; format: in vivo; details: for time spent in the open arms / frequency of stretched attend postures (SAPs): 30 min pretest, 5-min test; for time spent in the open arms: vs vehicle; for anxiogenic effect: across doses tested (2.5-30 mg/kg ip); for anxiolytic effect: at a sufficient dose
From the text: The rat zero-maze model is a refined alternative to the plus-maze, the most widely used animal model of anxiety, and consists of an elevated annular platform, divided equally into four quadrants. Two opposite quadrants are enclosed by Perspex walls on both the inner and the outer edges of the platform, while the remaining two opposite quadrants are open being enclosed only by a Perspex “lip”. Animals will show a preference for the closed areas, and avoidance of the open sections is assumed to stem from a rodent's natural aversion to open, exposed spaces. The primary index of anxiety, which reflect changes in open arm preference, is the percentage of time spent on the open areas. A reduction in the amount of activity on the open areas is considered to reflect an increase in anxiety. Other, ethologically-based behaviours are also assessed as indices of anxiety. One of the most important is stretched attend postures (SAP) from closed to open quadrants. […] Shepherd, J K; et al., (1994) Behavioural and pharmacological validation of the elevated “zero-maze” as an animal model of anxiety. Psychopharmacol., 116:56-64.
Male Sprague-Dawley 200-250 g (Envigo UK) rats were used. Animals were group-housed (5 per cage; cage size: 40×40×20 cm) in a temperature-controlled environment (22±2° C.), under a 12 h light-dark cycle (lights on: 08:00 hours) for one week prior to testing. Food and water were freely available. Number of animals per group=5. Animals were moved into the experimental room 16-24 hours before testing.
The elevated 0-maze comprises a black Perspex annular platform (105 cm diameter, 10 cm width) elevated to 65 cm above ground level, divided equally into four quadrants. Two opposite quadrants are enclosed by clear red Perspex walls (27 cm high) on both the inner and outer edges of the platform, while the remaining two opposite quadrants are surrounded only by a Perspex “lip” (1 cm high) which serves as a tactile guide to animals on these open areas.
Subjects were weighed and tail marked before being injected. After a specified pretreatment time, subjects were placed in a closed quadrant and a 5-min test period were recorded on videotape for subsequent analysis. The maze were cleaned with 5% methanol/water solution and dried thoroughly between test sessions. Behavioural measures comprise percentage time spent on the open areas (% TO) and frequency of stretched attend postures (SAP) from closed to open quadrants. Since the control groups were all treated identically with the same vehicle these were combined to increase power. The Chlordiazepoxide groups were also treated identically with the same dose so these were also combined to increase power. Animals are scored as being in the open area when all four paws were in an open quadrant and in the closed area only when all four paws have passed over the open-closed divide. All testing were carried out between 9.00 and 16.00 hours.
Drug Versus Vehicle Treatments For each study, a 1-way ANOVA was conducted across vehicle, CDP, and drug treatment groups. Each group was compared to the vehicle group and a p-value for treatment determined by Fishers Least Significant Difference (LSD) test. This analysis was performed in GraphPad Prism (Version 9).Formulations: […]
Intraperitoneal (IP): Racemic methylone HCl was formulated in Vehicle 1 (Saline) for injection to concentrations of 1, 3 and 6 mg/mL to provide doses of 5, 15 and 30 mg/kg when administered ip in 5 mL/kg dosing volumes.
Intraperitoneal (IP): S-methylone HCl was formulated in Vehicle 1 (Saline) for injection to concentrations of 0.5, 1, 1.5, 3 and 6 mg/mL to provide doses of 2.5, 5, 7.5, 15 and 30 mg/kg when administered ip in 5 mL/kg dosing volumes.
Intraperitoneal (IP): R-methylone HCl was formulated in Vehicle 1 (Saline) for injection to concentrations of 1, 3 and 6 mg/mL to provide doses of 5, 15 and 30 mg/kg when administered ip in 5 mL/kg dosing volumes. […]

[2] = Metabolic stability in human liver microsomes; format: in vitro ADME; details: pooled liver microsomes, pH 7.4; human liver microsomes 0.5 mg/mL, 1 μM compound, NADPH, 0-45 min
Experimental: Pooled liver microsomes are purchased from a reputable commercial supplier. Microsomes are stored at […] prior to use. Microsomes (final protein concentration 0.5 mg/mL), 0.1 M phosphate buffer pH 7.4 and test compound (final substrate concentration 1 μM; final DMSO concentration 0.25%) are preincubated at 37° C. prior to the addition of NADPH (final concentration 1 mM) to initiate the reaction. A minus cofactor control incubation is included for each compound tested where 0.1 M phosphate buffer pH 7.4 is added instead of NADPH (minus NADPH). Two control compounds are included with each species. All incubations are performed singularly for each test compound. Each compound is incubated for 0, 5, 15, 30 and 45 min. The control (minus NADPH) is incubated for 45 min only. The reactions are stopped by transferring incubate into acetonitrile at the appropriate time points, in a 1:3 ratio. The termination plates are centrifuged at 3,000 rpm for 20 min at 4° C. to precipitate the protein.
From a plot of ln peak area ratio (compound peak area/internal standard peak area) against time, the gradient of the line is determined. Subsequently, half-life and intrinsic clearance are calculated using the equations below:
where V=Incubation volume (μL)/Microsomal protein (mg)
Relevant control compounds were assessed, ensuring intrinsic clearance values fall within the specified limits (if available).

[3] = 30 mg/kg ip vs chlordiazepoxide 6 mg/kg ip

SMILES | time spent in the open arms ([1]; 5 mg/kg ip) | decrease in SAPs compared with chlordiazepoxide ([1]; 15 mg/kg ip vs chlordiazepoxide 6 mg/kg ip) | frequency of stretched attend postures (SAPs) ([1]; 15 mg/kg ip) | time spent in the open arms ([1]; 15 mg/kg ip) | frequency of stretched attend postures (SAPs) ([1]; 30 mg/kg ip) | time spent in the open arms ([1]; 30 mg/kg ip) | anxiogenic effect [1] | anxiolytic effect [1] | half-life at 1 μM [2] | microsomal CLint at 1 μM [2] | decrease in SAPs compared with chlordiazepoxide [1, 3] | time spent in the open arms compared with chlordiazepoxide [1, 3] | frequency of SAPs, dose dependence ([1]; 5, 15 and 30 mg/kg ip) | time spent in the open arms, dose dependence ([1]; 5, 15 and 30 mg/kg ip) | frequency of stretched attend postures (SAPs) ([1]; 2.5 mg/kg ip) | frequency of stretched attend postures (SAPs) ([1]; 5 mg/kg ip) | frequency of stretched attend postures (SAPs) ([1]; 7.5 mg/kg ip) | time spent in the open arms ([1]; 7.5 mg/kg ip)
CNC(C)C(=O)c1ccc2c(c1)OCO2 (racemic) [(rac)-Methylone Hydrochloride, 3,4-methylenedioxy-N-methylcathinone hydrochloride] | a decrease in time spent in the open arms vs placebo | not as effective as chlordiazepoxide | dose dependent decrease in SAPs | no difference from placebo | a decrease in SAPs | a significant decrease in time spent in the open arms | show anxiogenic effects at lower doses | effective anxiolytics | 2.62 h | 8.84 µL/min/mg |  |  |  |  |  |  |  | 
CN[C@H](C)C(=O)c1ccc2c(c1)OCO2 [(R)-Methylone Hydrochloride, (R)-1-(Benzo[d][1,3]dioxol-5-yl)-2-(methylamino)propan-1-one Hydrochloride] |  |  |  |  | significantly decreasing SAPs |  | did not show any anxiogenic effect at any dose | effective anxiolytics | 3.38 h | 6.82 µL/min/mg | to the same level as chlordiazepoxide | as effective as chlordiazepoxide | dose dependent decrease in SAPs | dose dependent increase in time spent in the open arms |  |  |  | 
CN[C@@H](C)C(=O)c1ccc2c(c1)OCO2 [(S)-Methylone Hydrochloride, (S)-1-(Benzo[d][1,3]dioxol-5-yl)-2-(methylamino)propan-1-one Hydrochloride] | the time spent in the open arms decreased as the dose increased |  | dose dependent decrease in SAPS | the time spent in the open arms decreased as the dose increased | dose dependent decrease in SAPS | the time in the open arms increased | show anxiogenic effects at lower doses | effective anxiolytics | 2.28 h | 10.1 µL/min/mg | even more effective than chlordiazepoxide | as effective as chlordiazepoxide |  |  | dose dependent increase in SAPs | dose dependent increase in SAPs | dose dependent decrease in SAPS | the time spent in the open arms decreased as the dose increased
